Results: article PMC5557916, “A new method to investigate the catalytic mechanism of YhdE pyrophosphatase by using a pyrophosphate fluorescence probe” (Scientific Reports, 2017)

B1: YhdE (Escherichia coli K-12; E33A) (protein)
chain: MTSLYLASGSPRRQELLAQLGVTFERIVTGIEAQRQPQESAQQYVVRLAREKARAGVAQTAKDLPVLGADTIVILNGEVLEKPRDAEHAAQMLRKLSGQTHQVMTAVALADSQHILDCLVVTDVTFRTLTDEDIAGYVASDEPLDKAGAYGIQGLGGCFVRKINGSYHAVVGLPLVETYELLSNFNALREKRDKHDG
notes: recombinant, cloned in vector pFO4, expressed in E. coli BL21(DE3); PDB entries are of the E33A mutant

What was measured:
YhdE = biological target: T1, YhdE (Escherichia coli, UniProt P25536); test: fluorescence PPi sensor (4-isoACBA-Zn(II)), real-time; format: biochemical; details: 20 mM HEPES pH 7.0, 0.4 mM Zn2+, 0.1 mM 4-isoACBA, 298 K; 75 nM enzyme
T1 construct: recombinant, cloned in vector pFO4, expressed in E. coli BL21(DE3); PDB entries are of the E33A mutant

[1] = substrate: Cc1cn([C@H]2C[C@H](O)[C@@H](COP(=O)(O)OP(=O)(O)OP(=O)(O)O)O2)c(=O)[nH]c1=O; test: as above; format: biochemical, Escherichia coli; details: 20 mM HEPES pH 7.0, 0.4 mM Zn2+, 0.1 mM 4-isoACBA, 298 K, 7.5 μM enzyme, 25.0 °C

| Molecule | apparent Km (YhdE) | Km [1] [µM] |
| --- | --- | --- |
| Cc1cn([C@H]2C[C@H](O)[C@@H](COP(=O)(O)OP(=O)(O)OP(=O)(O)O)O2)c(=O)[nH]c1=O [dTTP] | somewhat surprisingly, is similar to that of the wild-type YhdE | – |
| B1 | – | 75 |
